Patent EP4721737A1, “USE OF PHARMACEUTICAL COMPOSITION COMPRISING COMPOUND HAVING BIS(AZANYLYLIDENE) SULFONYL STRUCTURE FOR TREATING ANEMIA-RELATED DISEASES” (Scinnohub Pharmaceutical Co., Ltd., priority 2023, dated 2024)

What was measured:
recombinant human PKR = recombinant human PKR (Homo sapiens, UniProt P30613); assay: pyruvate kinase (PKR) activity test, activation of recombinant enzyme (fluorescence kit); assay type: biochemical
Protocol: To test the activation effect of the compound of the present disclosure on recombinant human PKR.
3.1 A recombinant human PKR enzyme solution was prepared at a concentration of 60 ng/well (a 20 µL reaction system), and 5 µL of the solution was added into each well of a black transparent bottom 384-well plate.
3.2 Compound solutions were prepared at different concentrations, with the final concentrations of 1000/300/100 nM (containing 1% DMSO). Each 5 µL of the compound solution was added into the plate in step 3.1 and mixed well. The plate was incubated at room temperature for 10 min.
3.3 A reaction system was prepared according to the instructions of a kit (as shown in the table below), and 10 µL of the reaction system was added into each well of the 384-well plate, and mixed uniformly with the solution in step 3.2.
3.4 The 384-well plate was placed on a microplate reader to detect the fluorescence value at 540/590 nm, where the value was read every 2 minutes and the detection was conducted continuously for 1 hour.
3.5 The Slope value within the detection time was calculated, and the 1% DMSO well was used as a control well to calculate a compound activation rate. Activation rate % = (Slopeofcompoundwell/Slopeofcontrolwell) × 100% [formula]
With the log value of the compound concentration as the X axis and the percentage activation rate as the Y axis, a dose-effect curve was fitted with the log(agonist) vs. response-variable slope of the analysis software GraphPad Prism 5, and the AC50 value of the activity of each compound against PKR was obtained. Y = min + (max−min)/(1+10^(∧)((LogAC50−X)×Hillslope)). [formula]

[1] = biological target: T1, PKR in ex vivo red blood cells from healthy individuals (Homo sapiens, UniProt P30613); assay: ex vivo pyruvate kinase (PKR) activity experiment, red blood cells of healthy individuals; assay type: cell-based; conditions: 3 hours co-cultivation
T1 construct: endogenous in cells; host or cells: human red blood cells isolated from fresh peripheral blood of healthy individuals
T1 sequence (P30613 whole entry): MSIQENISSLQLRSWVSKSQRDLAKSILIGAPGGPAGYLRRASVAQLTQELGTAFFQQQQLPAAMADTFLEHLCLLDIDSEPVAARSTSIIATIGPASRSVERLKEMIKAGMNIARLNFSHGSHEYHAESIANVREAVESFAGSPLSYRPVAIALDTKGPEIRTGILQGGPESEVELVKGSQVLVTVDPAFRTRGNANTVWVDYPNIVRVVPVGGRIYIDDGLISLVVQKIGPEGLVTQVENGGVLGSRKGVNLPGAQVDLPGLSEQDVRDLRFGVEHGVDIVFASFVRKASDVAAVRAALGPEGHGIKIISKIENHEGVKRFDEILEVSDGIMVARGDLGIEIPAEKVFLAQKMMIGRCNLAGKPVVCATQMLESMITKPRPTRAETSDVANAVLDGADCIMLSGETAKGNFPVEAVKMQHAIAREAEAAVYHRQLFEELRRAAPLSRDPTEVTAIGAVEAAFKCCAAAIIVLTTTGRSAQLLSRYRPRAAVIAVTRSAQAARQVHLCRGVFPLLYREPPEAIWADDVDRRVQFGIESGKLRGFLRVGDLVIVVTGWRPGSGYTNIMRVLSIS
Summary of the method: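 Washed, Percoll-purified human RBCs at 1 × 10^7 cells/mL were exposed to compound (final 1–3000 nM, 1% DMSO) for 3 h at 37°C, then lysed. PKR activity in lysate was followed kinetically by fluorescence at 540/590 nm over 1 h. Slope versus 1% DMSO control gave % activation; AC50 from variable-slope fit.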

[2] = Phase II clinical studies, at week 12; cited from earlier work

recombinant human PKR, sequence (P30613 whole entry): as above

Row | AC50 (recombinant human PKR) [nM] | AC50 [1] [nM] | SMILES | average increase in HGB [2] [g/dL] | patients achieved an increase in HGB of 1.0 g/dL [2] [%]
1 | < 100 | < 100 | O=C([C@H](CO)c1ccccc1)N1CC(=C2CN(S(=O)(=O)c3ccc(OC(F)F)cn3)C2)C1 [Compound 80, (S)-1-(1'-((5-(difluoromethoxy)pyridin-2-yl)sulfonyl)-1',4'-dihydro-2H,2'H-[3,3'-diazetidinylidene]-1 (4H)-yl)-3-hydroxy-2-phenylpropan-1-one] | – | –
2 | < 100 | < 100 | COc1ccc(S(=O)(=O)N2CC(=C3CN(C(=O)[C@H](CO)c4ccc(F)cc4F)C3)C2)nc1 [Compound 87, (S)-2-(2,4-difluorophenyl)-3-hydroxy-1-(1'-((5-methoxypyridin-2-yl)sulfonyl)-1',4'-dihydro-2H,2'H-[3,3'-diazetidinylidene]-1(4H)-yl)propan-1-one] | – | –
3 | 101 to 300 | < 100 | O=C(N1CC(=C2CN(S(=O)(=O)c3ccccn3)C2)C1)C1(c2ccccc2)COC1 [Compound 89, (3-phenyloxetan-3-yl)(1'-(pyridin-2-ylsulfonyl)-1',4'-dihydro-2H,2'H-[3,3'-diazetidinylidene]-1(4H)-yl)methanone] | – | –
4 | < 100 | < 100 | [2H]C([2H])([2H])Oc1ccc(S(=O)(=O)N2CC(=C3CN(C(=O)[C@H](CO)c4ccccc4)C3)C2)nc1 [Compound 91, (S)-3-hydroxy-1-(1'-((5-(methoxy-d3)pyridin-2-yl)sulfonyl)-1',4'-dihydro-2H,2'H-[3,3'-diazetidinylidene]-1(4H)-yl)-2-phenylpropan-1-one] | – | –

Second part, the compound before the results:

Row | SMILES | AC50 (recombinant human PKR) [nM] | AC50 [1] [nM] | average increase in HGB [2] [g/dL] | patients achieved an increase in HGB of 1.0 g/dL [2] [%]
5 | O=C(C(CO)c1ccc(F)cc1F)N1CC(=C2CN(S(=O)(=O)c3ccccn3)C2)C1 (stereo not shown) [Compound 74, 2-(2,4-difluorophenyl)-3-hydroxy-1-(1'-(pyridin-2-ylsulfonyl)-1',4'-dihydro-2H,2'H-[3,3'-diazetidinylidene]-1(4H)-yl)propan-1-one] | < 100 | < 100 | – | –
6 | O=C(C(CO)c1ccc(C(F)(F)F)cc1)N1CC(=C2CN(S(=O)(=O)c3ccccn3)C2)C1 (stereo not shown) [Compound 78, 3-hydroxy-1-(1'-(pyridin-2-ylsulfonyl)-1',4'-dihydro-2H,2'H-[3,3'-diazetidinylidene]-1(4H)-yl)-2-(4-(trifluoromethyl)phenyl)propan-1-one] | 300 to 1000 | 300 to 1000 | – | –
7 | O=C(C(CO)c1ccc2c(c1)NCCO2)N1CC(=C2CN(S(=O)(=O)c3ccccn3)C2)C1 (stereo not shown) [Compound 79, 2-(3,4-dihydro-2H-benzo[b][1,4]oxazin-6-yl)-3-hydroxy-1-(1'-(pyridin-2-ylsulfonyl)-1',4'-dihydro-2 H,2'H-[3,3'-diazetidinylidene]-1(4H)-yl)propan-1-one] | < 100 | 101 to 300 | – | –
8 | O=C(c1ccc(NS(=O)(=O)c2cccc3cccnc23)cc1)N1CCN(CC2CC2)CC1 [Mitapivat] | – | – | 1.34 | 92.3
